Six compounds from patent publication US4968686A, “Acyclic pyrrolo [2,3-d]pyrimidine analogs as antiviral agents” (The Regents of The University of Michigan, priority 1989, dated 1990) can be followed below.

In experiment [1] the test system is HCMV DNA synthesis. Description: HCMV DNA synthesis by dot-blot hybridization. As to conditions: Human betaherpesvirus 5, read-out: HCMV DNA Synthesis, 50% Inhibitory Concentration. The class given is cell-based, human cytomegalovirus in HFF cells. As to the method: The amount of HCMV DNA synthesis was determined in two types of experiments: (a) as an integral part of HCMV titer (yield) reduction experiments and (b) as separate experiments to determine only the amount of viral DNA synthesis in the absence or presence of test compounds.
HFF cells were planted in 25 cm^2 flasks and infected with HCMV as described in part 2 and incubated at 37° C. Before harvesting at selected times by the addition of 0.1 volume of 0.2M EDTA, an aliquot of medium was removed for determination of HCMV titer. After harvesting cells into the medium, aliquots were retained for determination of HCMV DNA by hybridization.
HFF cells were planted in 96-well cluster plates at 20,000 cell/well in 200 μl of growth medium [MEM(E)] with 1.1 gm/liter NaHCO3 and 10% fetal bovine serum. After incubation in a humidified atmosphere of 4% CO2 -96% air for 1 to 2 days, growth medium was aspirated and the 70% confluent cells were infected at a m.o.i. of 0.5 p.f.u. per cell by addition of HCMV in 100 μl of MEM(E) with 1.1 gm/l liter NaHCO3 and 5% fetal bovine serum (maintenance medium). Following a 1-hour incubation at 37° C. for virus adsorption, 100 μl of selected concentrations of test compounds were added to each of triplicate wells in twice their final concentration of maintenance medium. Usually 3 to 6 concentrations of compounds were tested in 3.2- or 10-fold dilutions along with appropriate triplicate no drug and no virus controls. Plates were incubated for 7 days and harvested by addition of 100 μl of 0.25M EDTA per well. After a 30-minute incubation of 37° C. to free the cells, the contents of the wells were filtered as described below or frozen at -76° C. for subsequent analysis. The following procedure adapted from Gadler, H., Antimicrob. Agents Chemother., 24:370 (1983) was employed for the hybridization portion of the assay:
The contents of each well were removed and filtered through Gene Screen™ (NEN Research Products), presoaked in 10×SSC (1×SSC is 0.15M NaCl, 0.015M NaCitrate), using a 96-well filtration manifold (Schleicher and Schuell). The original microtiter plate wells were rinsed with 200 μl HEPES buffered saline and the contents added to the filter manifold.
The Gene Screen membrane was dried at room temperature and then baked at 80° to 100° C. for 3 to 4 hours. The DNA on the membrane was denatured by placing the membrane (sample side up) sequentially on filter papers soaked in (a) 0.5M NaOH for 30 minutes, (b) 0.1 M NaOH, 1.5M NaCl for 5 minutes, (c) 1M Tris HCl, pH 7.5 twice each for 5 minutes, (d) 0.5M Tris HCl, pH 7.5, 1.5M NaCl for 5 minutes and then dried at room temperature. The membrane was added to a "hybridization bag" and prehybridized at 65° C. for (greater or equal to) 6 hours in 10 ml 0.2% polyvinylpyrrolidone (MW 40,000); 0.2% ficoll (MW 400,000); 0.2% bovine serum albumin; 0.05 M Tris HCl, pH 7.5; 0.1% sodium pyrophosphate; 1M NaCl; 10% dextran sulfate (ME 500,000) and 0.1 mg/ml denatured salmon testes DNA. […]
Following hybridization, the membrane was washed sequentially in 100 ml 2×SSC at room temperature twice each for 5 minutes, 100 ml 2×SCC plus 1% SDS at 65° C. twice each for 30 minutes and then 100 ml 0.1×SSC at room temperature twice each for 30 minutes. The membrane was dried at room temperature and each filtration spot was cut from the membrane and placed into 4 ml of toluene/DPO scintillant and hybridized label counted in a liquid scintillation spectrometer. […]

Experiment [2] concerns MCMV. Put plainly: In vivo treatment of mice infected with murine cytomegalovirus (MCMV). The method, then:
Compound UMJD 183 was tested in mice infected with murine cytomegalovirus (MCMV). This animal model has been recognized as having capabilities predictive of efficacy in humans.
Compound UMJD 183 and the drug ganciclovir (DHPG) were administered to groups of 15 mice each at doses and times of administration shown in Table 3. Each compound at all doses was administered intraperitoneally twice daily for five days beginning at either 6, 24 or 48 hours after virus inoculation. Animals were observed daily and the number dying each day recorded.

In the case of `Nc1ncnc2c1c(Br)cn2COCCO` [UMJD 102, 4-Amino-5-bromo-7-(2-hydroxyethoxymethyl)pyrrolo[2,3-d]-pyrimidine], in experiment [1], the IC50 was found to be 3.2 µM.

Consider `Nc1ncnc2c1c(Cl)cn2COCCO` [UMJD 100, 4-Amino-5-chloro-7-(2-hydroxyethoxymethyl)pyrrolo[2,3-d]-pyrimidine], for which, in experiment [1], the IC50 stood at 15 µM.

For the compound `Nc1nc2c(ncn2COCCO)c(=O)[nH]1` [Acyclovir, reference compound], the IC50 in experiment [1] came to 35 µM.

As to `Nc1nc(O)c2ncn(COC(CO)CO)c2n1` [Ganciclovir (DHPG), reference compound], the IC50 in experiment [1] came out at 1.1 µM. For the same compound, the “MDD (Mean Day of Death)” value in experiment [2] (0.6 mg/kg at 6 h) stood at 4.6 days; in experiment [2] (0.6 mg/kg at 24 h), 5.4 days; in experiment [2] (0.6 mg/kg at 48 h), 5.3 days; in experiment [2] (1.9 mg/kg at 6 h) it was 5.4 days; in experiment [2] (1.9 mg/kg at 24 h), 4.9 days; in experiment [2] (1.9 mg/kg at 48 h) it was 4.9 days. The “MDD (Mean Day of Death)” value was 4.2 days in experiment [2] (5.6 mg/kg at 6 h); 5.3 days in experiment [2] (5.6 mg/kg at 24 h); 5.5 days in experiment [2] (5.6 mg/kg at 48 h); 3.8 days in experiment [2] (16.7 mg/kg at 6 h); 5.3 days in experiment [2] (16.7 mg/kg at 24 h); 5.5 days in experiment [2] (16.7 mg/kg at 48 h). Also, the “Mortality Number” value in experiment [2] (0.6 mg/kg at 6 h) is given as 14/15; in experiment [2] (0.6 mg/kg at 24 h), 12/15; in experiment [2] (0.6 mg/kg at 48 h), 14/15; in experiment [2] (1.9 mg/kg at 6 h), 5/15; in experiment [2] (1.9 mg/kg at 24 h), 12/15; in experiment [2] (1.9 mg/kg at 48 h) it was 11/15. Also, the “Mortality Number” value is listed as 5/15 in experiment [2] (5.6 mg/kg at 6 h); 7/15 in experiment [2] (5.6 mg/kg at 24 h); 10/15 in experiment [2] (5.6 mg/kg at 48 h); 4/15 in experiment [2] (16.7 mg/kg at 6 h); 7/15 in experiment [2] (16.7 mg/kg at 24 h); 8/15 in experiment [2] (16.7 mg/kg at 48 h). Besides, the “Mortality Percent” value in experiment [2] (0.6 mg/kg at 6 h) was 93%; in experiment [2] (0.6 mg/kg at 24 h) it was 80%; in experiment [2] (0.6 mg/kg at 48 h), 93%; in experiment [2] (1.9 mg/kg at 6 h) it was 33%; in experiment [2] (1.9 mg/kg at 24 h), 80%; in experiment [2] (1.9 mg/kg at 48 h) it was 73%. For the same compound, the “Mortality Percent” value in experiment [2] (5.6 mg/kg at 6 h) is on record as 33%; in experiment [2] (5.6 mg/kg at 24 h), 47%; in experiment [2] (5.6 mg/kg at 48 h), 67%; in experiment [2] (16.7 mg/kg at 6 h), 27%; in experiment [2] (16.7 mg/kg at 24 h), 47%; in experiment [2] (16.7 mg/kg at 48 h), 53%.

As for `Nc1ncnc2c1c(Br)cn2COC(CO)CO` [UMJD 183, 4-amino-5-bromo-7-[(1,3-dihydroxy-2-propoxy)methyl]-pyrrolo[2,3-d]pyrimidine], the “MDD (Mean Day of Death)” value in experiment [2] (1.9 mg/kg at 6 h) came out at 6.2 days; in experiment [2] (1.9 mg/kg at 24 h) it was 4.8 days; in experiment [2] (1.9 mg/kg at 48 h), 4.8 days; in experiment [2] (5.6 mg/kg at 6 h), 8.0 days; in experiment [2] (5.6 mg/kg at 24 h), 6.3 days; in experiment [2] (5.6 mg/kg at 48 h) it was 5.5 days. The “MDD (Mean Day of Death)” value in experiment [2] (16.7 mg/kg at 6 h) was 8.7 days; in experiment [2] (16.7 mg/kg at 24 h) it was 7.1 days; in experiment [2] (16.7 mg/kg at 48 h), 8.4 days; in experiment [2] (50 mg/kg at 6 h), 10.8 days; in experiment [2] (50 mg/kg at 24 h), 8.8 days; in experiment [2] (50 mg/kg at 48 h), 7.5 days. Further, the “Mortality Number” value in experiment [2] (1.9 mg/kg at 6 h) was 5/15; in experiment [2] (1.9 mg/kg at 24 h), 9/15; in experiment [2] (1.9 mg/kg at 48 h), 10/15; in experiment [2] (5.6 mg/kg at 6 h), 1/15; in experiment [2] (5.6 mg/kg at 24 h), 3/15; in experiment [2] (5.6 mg/kg at 48 h) it was 6/15. Moreover, the “Mortality Number” value was 9/15 in experiment [2] (16.7 mg/kg at 6 h); 12/15 in experiment [2] (16.7 mg/kg at 24 h); 13/15 in experiment [2] (16.7 mg/kg at 48 h); 9/15 in experiment [2] (50 mg/kg at 6 h, i.p. twice daily 5 days); 14/15 in experiment [2] (50 mg/kg at 24 h); 13/15 in experiment [2] (50 mg/kg at 48 h). Further, the “Mortality Percent” value worked out at 33% in experiment [2] (1.9 mg/kg at 6 h); 60% in experiment [2] (1.9 mg/kg at 24 h); 67% in experiment [2] (1.9 mg/kg at 48 h); 7% in experiment [2] (5.6 mg/kg at 6 h); 20% in experiment [2] (5.6 mg/kg at 24 h); 40% in experiment [2] (5.6 mg/kg at 48 h). The “Mortality Percent” value in experiment [2] (16.7 mg/kg at 6 h) is on record as 60%; in experiment [2] (16.7 mg/kg at 24 h), 80%; in experiment [2] (16.7 mg/kg at 48 h), 87%; in experiment [2] (50 mg/kg at 6 h), 60%; in experiment [2] (50 mg/kg at 24 h), 93%; in experiment [2] (50 mg/kg at 48 h), 87%. The “number of animals surviving virus infection (in words)” value in experiment [2] (5.6 mg/kg) is “highly significant increases in the number of animals surviving”. The “life span of MCMV-infected mice (in words)” value in experiment [2] (all doses) was “prolonged life span (increased the mean day of death) at all doses”.

As for `Nc1ncnc2c1c(I)cn2COCCO` [UMJD 104, 4-Amino-5-iodo-7-(2-hydroxyethoxymethyl)pyrrolo[2,3-d]-pyrimidine], in experiment [1], the IC50 is 47 µM.
